According to ChEMBL document CHEMBL4004785, “Spiro Meroterpenoids from Ganoderma applanatum” (J Nat Prod, 2017):

Target: T1, Tyrosine-protein kinase JAK3 (Homo sapiens, UniProt P52333)
T1 sequence (P52333 whole entry): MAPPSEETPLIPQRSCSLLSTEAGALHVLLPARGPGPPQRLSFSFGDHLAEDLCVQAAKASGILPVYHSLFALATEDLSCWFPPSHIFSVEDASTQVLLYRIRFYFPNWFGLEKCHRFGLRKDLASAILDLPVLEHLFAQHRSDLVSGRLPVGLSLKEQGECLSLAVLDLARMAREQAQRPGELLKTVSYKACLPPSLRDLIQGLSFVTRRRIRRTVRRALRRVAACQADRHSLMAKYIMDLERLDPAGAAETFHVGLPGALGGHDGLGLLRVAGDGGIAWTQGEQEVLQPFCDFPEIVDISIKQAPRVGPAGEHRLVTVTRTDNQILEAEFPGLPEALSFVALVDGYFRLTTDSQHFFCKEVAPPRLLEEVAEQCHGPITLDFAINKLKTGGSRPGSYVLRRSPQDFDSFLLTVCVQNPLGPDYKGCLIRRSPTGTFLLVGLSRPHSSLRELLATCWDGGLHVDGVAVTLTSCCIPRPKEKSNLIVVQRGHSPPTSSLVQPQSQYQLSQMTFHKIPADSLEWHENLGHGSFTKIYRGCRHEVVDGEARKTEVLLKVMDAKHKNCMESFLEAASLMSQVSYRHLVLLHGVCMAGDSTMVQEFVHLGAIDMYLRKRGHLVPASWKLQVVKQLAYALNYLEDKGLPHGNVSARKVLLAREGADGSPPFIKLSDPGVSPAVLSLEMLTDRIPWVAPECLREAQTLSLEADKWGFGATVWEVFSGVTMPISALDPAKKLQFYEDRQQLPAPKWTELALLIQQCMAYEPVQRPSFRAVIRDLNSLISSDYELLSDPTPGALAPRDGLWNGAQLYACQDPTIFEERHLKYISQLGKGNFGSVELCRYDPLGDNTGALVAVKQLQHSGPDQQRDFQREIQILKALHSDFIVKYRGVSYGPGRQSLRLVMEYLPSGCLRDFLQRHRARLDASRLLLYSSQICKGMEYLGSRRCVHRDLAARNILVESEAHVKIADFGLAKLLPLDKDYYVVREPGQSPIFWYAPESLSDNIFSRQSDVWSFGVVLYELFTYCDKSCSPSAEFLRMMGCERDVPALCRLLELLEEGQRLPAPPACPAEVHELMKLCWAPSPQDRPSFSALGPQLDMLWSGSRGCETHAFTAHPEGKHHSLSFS
Test: Inhibition of human recombinant GST-tagged JAK3 cytoplasmic domain (781 to 1124 residues) expressed in baculovirus expression system incubated for 1 hr by FRET-based Z'-Lyte assay

Row | Compound | IC50 [µM]
1 | O=CC1=CCC[C@@H](C(=O)O)[C@]2(C1)Oc1ccc(O)cc1C2=O | 7
2 | O=CC1=CCC[C@@H](C(=O)O)[C@@]2(C1)Oc1ccc(O)cc1C2=O | 34.8
